Test results published in patent US11434241B2, “Pyrimidine derivatives for prevention and treatment of bacterial infections” (UNIVERSITE DE LIEGE, priority 2018, dated 2022).
Values after ≈ are worked out from the molar mass of the structure shown. Where two headings read alike, the source gives them in different places.

Experiments:
[1] = system: methicillin-resistant S. aureus (MRSA) ATCC BAA-1556; assay: MIC determination on methicillin-resistant S. aureus; type: cell-based, Staphylococcus aureus; conditions: for MIC: Staphylococcus aureus; for antibacterial activity against MRSA (in words): MHB medium
Method: (§1) Further experiments are conducted using different strains of S. aureus, as clinically relevant Gram-positive bacterial strains: S. aureus ATCC 25904, methicillin-resistant S. aureus (MRSA) ATCC BAA-1556, Glycopeptide intermediate-resistant (GISA) S. aureus Mu-50 (ATCC 700695) in order to determine the Minimal Inhibitory Concentration (MIC) which is the minimal concentration required to prevent bacterial growth. The bioluminescent strain S. aureus Xen29 (ATCC 12600) was also used. This strain is derived from the parental strain S. aureus ATCC 12600, a pleural fluid isolate, which is also designated as NCTC8532.
(§2) A single colony selected from the different strains of S. aureus is resuspended and cultured in brain heart infusion (BHI) broth overnight (O/N) in aerobic conditions (37° C. with 220 rpm shaking), next day a 1:100 inoculum in Mueller-Hinton broth (MHB) is incubated in aerobic conditions for 3 hr (=OD0.08-0.1) and an inoculum of 1:300 dilution, corresponding to 3×10^5 CFU/ml, is incubated in presence or absence of different concentrations of the tested molecules in 1% DMSO. After O/N growth the OD of each culture was measured at 600 nm (OD600) in a spectrophotometer (Victor 3-Perkin Elmer). The MIC represents the concentration at which there is no visible growth of bacteria, i.e. ΔOD at 600 nm equal to zero (blank is the medium alone). […] The MIC of molecule 2329 against Glycopeptide intermediate-resistant (GISA) S. aureus Mu-50 (ATCC 700695) is in between 25 and 30 μM, while it is above 50 μM for molecules 2348, 2412, and 2452.
(§3) Further experiments are conducted using different strains of S. aureus, as clinically relevant Gram-positive bacterial strains: methicillin-resistant S. aureus (MRSA) ATCC BAA-1556 and S. aureus Xen29 (Perkin Elmer ATCC 12600).
(§4) To determine the MIC of the above mentioned molecules in MRSA or in Xen29, a single colony of MRSA or Xen29 is resuspended and cultured in brain heart infusion (BHI) broth overnight (O/N) in aerobic conditions (37° C. with 220 rpm shaking), next day a 1:100 inoculum in Mueller-Hinton broth (MHB) is incubated in aerobic conditions for 3 hr (OD=0.08-0.1) and an inoculum of 1:300 dilution, corresponding to 3×10^5 CFU/ml, is incubated in presence or absence of different concentrations of the tested molecules in 1% DMSO. After O/N growth the OD of each culture was measured at 600 nm (OD600) in a spectrophotometer (Victor 3-Perkin Elmer). The MIC represents the concentration at which there is no visible growth of bacteria, i.e. ΔOD at 600 nm equal to zero (blank is the medium alone).
(§5) Molecule 36z has been tested for its potential antibacterial activity by determining its minimal inhibitory concentration (MIC) according to protocols recommended by EUCAST to assess the efficacy of antibiotics against bacterial strains. In brief MIC in MRSA (ATCC BAA-1556) or in Xen29 (Perkin Elmer-ATCC 12600) for 36z (molecule 25 in WO2009/034386) was determined by culturing a single colony of MRSA or Xen29 in brain heart infusion (BHI) broth overnight (O/N) in aerobic conditions (37° C. with 220 rpm shaking), while MIC for MRSE (ATCC 35984) was determined by culturing MRSE in TSB O/N. Next day a 1:100 inoculum in Mueller-Hinton broth (MHB) is incubated in aerobic conditions for 3 hr (OD=0.08-0.1) and an inoculum of 1:300 dilution, corresponding to 3×10^5 CFU/ml, is incubated in presence or absence of different concentrations of the tested molecules in 1% DMSO. After O/N growth the OD of each culture was measured at 600 nm (OD600) in a spectrophotometer (Victor 3-Perkin Elmer). The MIC represents the concentration at which there is no visible growth of bacteria, i.e. ΔOD at 600 nm equal to zero (blank is the medium alone). No antibacterial activity was found against MRSA (ATCC BAA-1556), Xen29 (Perkin Elmer-ATCC 12600 or MRSE (ATCC 35984) strains when the molecule was used at concentrations up to 200 μM.

[2] = system: S. aureus Xen29 (ATCC 12600); assay: MIC determination on bioluminescent S. aureus Xen29; type: cell-based, Staphylococcus aureus; conditions: for MIC: Staphylococcus aureus; for antibacterial activity / inhibition of Xen29 growth (in words): MHB medium
Method: as §1, §2, §3, §4, §5

[3] = system: vancomycin-resistant (VRE) E. faecalis ATCC BAA-2365; assay: MIC determination on vancomycin-resistant E. faecalis; type: cell-based, Enterococcus faecalis; conditions: Mueller-Hinton broth (MHB)
Method: Further experiments were conducted using the clinically relevant Gram-positive bacterial strain of vancomycin-resistant (VRE) E. faecalis ATCC BAA-2365, in order to determine the Minimal Inhibitory Concentration (MIC) which is the minimal concentration required to prevent bacterial growth.
A single colony selected from E. faecalis VRE is resuspended and cultured in the brain heart infusion (BHI) broth overnight (O/N) in aerobic conditions (37° C. with 220 rpm shaking), next day a 1:100 inoculum in Mueller-Hinton broth (MHB) is incubated in aerobic conditions for 3 hr (OD=0.08-0.1) and an inoculum of 1:300 dilution, corresponding to 3×10^5 CFU/ml, is incubated in presence or absence of different concentrations of the tested molecules in 1% DMSO. After O/N growth the OD of each culture is measured at 600 nm (OD600) in a spectrophotometer (Victor 3-Perkin Elmer). The MIC represents the concentration at which there is no visible growth of bacteria, i.e. ΔOD at 600 nm equal to zero (blank is the medium alone).

[4] = system: Glycopeptide intermediate-resistant (GISA) S. aureus Mu-50 (ATCC 700695); assay: MIC determination on glycopeptide intermediate-resistant S. aureus; type: cell-based; conditions: Staphylococcus aureus, ATCC700695, read-out: MIC S. aureus GISA
Method: as §1, §2

[5] = system: MRSA; assay: Minimal Bactericidal Concentration (MBC) for MRSA; type: cell-based, Staphylococcus aureus; conditions: for MBC: Staphylococcus aureus, MRSA, 99.9% of initial inoculum killed over 24 hours
Method: We have determined the Minimal Bactericidal Concentration (MBC) of the pyrazolopyrimidine molecule 2666 for the MRSA strain and the MBC of the purine molecules 2329 and 2833 for MRSA and the MRSE strain respectively.
To determine the MBC, bacteria were grown as per MIC determination in presence of the pyrazolopyrimidine molecule 2666 for MRSA or in presence of the purine molecule 2833 for MRSE or 2329 for MRSA. At 24 hours bacteria were plated on TSB agar plates by the broth microdilution method, and colonies formed on the plates were counted next day.
The MBC represents the lowest concentration at which 99.9% bacteria of the initial inoculum are killed over 24 hours.

[6] = system: S. aureus ATCC 25904; assay: MIC determination on S. aureus ATCC 25904; type: cell-based; conditions: Staphylococcus aureus, ATCC25904, read-out: MIC S. aureus ATCC25904
Method: as §1, §2

[7] = ATCC12600, read-out: MIC S. aureus Xen29

Compound | MIC ([1]; read-out: MIC S. aureus MRSA) | MIC [2, 7] | MIC [3] | MIC [4] | MBC relative to MIC, MRSA [5] | MBC [5] | MIC [6] | antibacterial activity against MRSA (in words) [1] | MIC ([1]; read-out: MIC MRSA) | antibacterial activity / inhibition of Xen29 growth (in words) [2] | MIC ([2]; ATCC12600, read-out: MIC Xen29)
CCCSc1nc(N[C@@H]2C[C@H]2c2ccc(F)c(F)c2)c2ncn(C)c2n1 [Molecule 2329, N-((1R,2S)-2-(3,4-difluorophenyl)cyclopropyl)-9-methyl-2-(propylthio)-9H-purin-6-amine] | 20 µM (≈ 7.51 µg/mL) | 20 to 25 µM (≈ 7.51 to 9.39 µg/mL) | 25 µM (≈ 9.39 µg/mL) | 25 to 30 µM (≈ 9.39 to 11.3 µg/mL) | around 2 times | 40 µM (≈ 15 µg/mL) | 20 to 25 µM (≈ 7.51 to 9.39 µg/mL) |  |  |  | 
CCCSc1nc(N[C@@H]2C[C@H]2c2ccc(F)c(F)c2)c2ncn(CC)c2n1 [Molecule 2348, N-((1R,2S)-2-(3,4-difluorophenyl)cyclopropyl)-9-ethyl-2-(propylthio)-9H-purin-6-amine] | 25 µM (≈ 9.74 µg/mL) | 20 to 25 µM (≈ 7.79 to 9.74 µg/mL) | > 50 µM | > 50 µM |  |  | 20 to 25 µM (≈ 7.79 to 9.74 µg/mL) |  |  |  | 
C=CCn1cnc2c(N[C@@H]3C[C@H]3c3ccc(F)c(F)c3)nc(SCCC)nc21 [Molecule 2412, 9-allyl-N-((1R,2S)-2-(3,4-difluorophenyl)cyclopropyl)-2-(propylthio)-9H-purin-6-amine] | 25 to 50 µM (≈ 10 to 20.1 µg/mL) | 20 to 25 µM (≈ 8.03 to 10 µg/mL) | > 50 µM | > 50 µM |  |  | 20 to 25 µM (≈ 8.03 to 10 µg/mL) |  |  |  | 
C#CCn1cnc2c(N[C@@H]3C[C@H]3c3ccc(F)c(F)c3)nc(SCCC)nc21 [Molecule 2452, N-((1R,2S)-2-(3,4-difluorophenyl)cyclopropyl)-9-(prop-2-yn-1-yl)-2-(propylthio)-9H-purin-6-amine] | 25 to 50 µM (≈ 9.99 to 20 µg/mL) | 20 to 25 µM (≈ 7.99 to 9.99 µg/mL) | > 50 µM | > 50 µM |  |  | 20 to 25 µM (≈ 7.99 to 9.99 µg/mL) |  |  |  | 
CCn1cnc2c(N[C@@H]3C[C@H]3c3ccc(F)c(F)c3)nc(SC)nc21 [Molecule 2511, N-((1R,2S)-2-(3,4-difluorophenyl)cyclopropyl)-9-ethyl-2-(methylthio)-9H-purin-6-amine] |  |  |  |  |  |  |  | active | 30 µM (≈ 10.8 µg/mL) | able to inhibit | 30 µM (≈ 10.8 µg/mL)
CCSc1nc(N[C@@H]2C[C@H]2c2ccc(F)c(F)c2)c2cnn(C)c2n1.Cl [Molecule 2666, N-((1R,2S)-2-(3,4-difluorophenyl)cyclopropyl)-6-(ethylthio)-1-methyl-1H-pyrazolo[3,4-d]pyrimidin-4-amine hydrochloride] |  |  |  |  | around 2 times | 40 µM |  | active | 20 µM | able to inhibit | 20 µM
